Where two headings read alike, the source gives them in different places.

In experiment [1] the target is T1, KRAS-G12C mutant (Homo sapiens, UniProt P01116, G12C). The experiment in a line: Gel shift assay (SDS-PAGE) for covalent modification of KRAS G12C. In kind it is binding. As to conditions: 0.5 μM compound, 1 μM GDP-bound KRAS G12C, 25° C., 5 minutes, shift indicative of covalent cysteine conjugation. How it is done: 0.5 μM compounds were incubated with 1 μM GDP-bound untagged KRAS (G12C or wild type) proteins at 25° C. for 5 minutes in 40 μl reaction buffer (50 mM Tris, pH 7.5, 100 mM NaCl, 1 mM MgCl2, 1 mM DTT). The reactions were quenched with 10 μI SDS-PAGE sample loading buffer (250 mM Tris-HCl, pH 6.8, 10% SDS, 0.5% bromophenol blue, 50% glycerol and 50 mM DTT) and then analyzed via SDS-PAGE using 4%-20% gradient polyacrylamide gel followed by Coomassie blue stain.
FIG. 1 illustrates mobility change of KRAS-G12C mutant or wild type proteins on SDS-PAGE after 5 minutes of coincubation at 25° C. with exemplary compounds of the present disclosure, indicative of covalent cysteine conjugation.
Table 3 summarizes molecular weight shift of KRAS-G12C mutant on SDS-PAGE after 5 mins of coincubation at 25° C. with exemplary compounds of the present disclosure, indicative of covalent cysteine conjugation.

In experiment [2] the test system is phospho-ERK1/2 (Thr202/Tyr204) in MIA PaCa-2 cell line. The experiment in a line: pERK and ERK Western blot analysis, MIA PaCa-2. In kind it is cell-based. As to conditions: Homo sapiens. How it is done:
MIA PaCa-2 (ATCC), NCI-H358 (ATCC), NCI-H23 (ATCC), SW837 and A549 (ATCC) cells were plated in 24-well plates at 2×10^5cells/well in RPMI growth medium containing 10% FBS and 1× Penicillin Streptomycin. They were then incubated at 37° C. overnight. The following day, the test compound was administered to the cells by using 1000× compound stock solution prepared in DMSO at various concentrations. After administration of the compound, the cells were then incubated at 37° C. for 4 hours. Upon completion, the cells were washed with PBS and protein was collected in Laemmli sample buffer (1×; VWR International). Proteins in cell lysate were separated by SDS-PAGE and transferred to Odyssey nitrocellulose membranes (Licor) with iblot® dry blotting transfer system (ThermoFisher). Nonspecific binding was blocked by incubating membranes with Intercept Blocking Buffer (Licor) for 1 hour at room temperature with gentle shaking. The membranes were then incubated overnight at 4° C. with primary antibodies rabbit anti-phospho p44/42 MAPK (Erk1/2) (1:2,000, Cell Signaling, 4370) and mouse anti-p44/42 MAPK (Erk1/2) (1:1,000, Cell Signaling, 4696) diluted in Intercept Blocking Buffer containing 0.1% Tween 20. After washing 3 times with TBS-T, the membranes were incubated with IRDye® 800CW goat anti-rabbit IgG (1:20,000, Licor) or IRDye® 680CW goat anti-mouse IgG (1:20,000, Licor) for 1 hour. After TBS-T washes, membranes were rinsed in TBS and scanned on Odyssey® CLx Imaging System (Licor). The bands were quantified using Image Studio™ Software (Licor).

Another experiment relates to MIA PaCa-2 cell line. The experiment in a line: 3D cell growth assay (CellTiter-Glo), MIA PaCa-2. In kind it is cell-based. The following applies: Homo sapiens, MIA PaCa-2, 144 h, 6 days, read-out: 3D growth inhibition GI50. The procedure:
MIA PaCa-2 (ATCC), NCI-H358 (ATCC), NCI-H23 (ATCC), SW837 and A549 (ATCC) cells were plated in round bottom 96-well spheroid microplates (Corning, 4520) at 3000 cells/well in 90 ul of RPMI growth medium containing 10% FBS and 1% Penicillin Streptomycin. Cells were incubated at 37° C. overnight. The following day, the test compound was administered to the cells by using 10× compound stock solution prepared in growth medium at various concentrations. After administration of the compound, cells were then incubated at 37° C. for 6 days. Before CellTiter-Glo assay, the plates were equilibrated at room temperature for approximately 10 minutes. 100 ul of CellTiter-Glo® Reagent (Promega, G7573) was added to each well. The plates were then incubated at room temperature for 10 minutes and luminescence was recorded by EnSpire plate reader (PerkinElmer). Table 6 illustrates growth inhibition (G150) by exemplary compounds 1-10 of the present disclosure in a MIA PaCa-2 cell line 6 days after administration in 3D cell culture. A: >0.1 nM and <1 nM; B: >=1 nM and <10 nM; C: >=10 nM and <100 nM; D: >100 nM.
For orientation: ATP-based viability assays read luminescence as a measure of living cells.

Experiment [3] has as its target T1, KRAS-G12C mutant. The experiment in a line: TR-FRET assay of SOS1-assisted KRAS GDP/GTP exchange. In kind it is biochemical. The procedure: GDP form of 6*His tagged KRAS-G12C was diluted to 40 nM and incubated with 8 nM LanthaScreen™ Elite Terbium-anti-HIS Antibody (Thermo, catalog number PV5863) in reaction buffer containing 20 mM Tris, pH 7.5, 100 mM NaCl, 1 mM DTT, 0.1% Tween20, 0.05% BSA, 2% DMSO, 1 mM MgCl2. After 1 hour-incubation at 4° C., proteins were placed in 384 well plate (PerkinElmer, PROXIPLATE-384 PLUS). Then compounds with different concentrations were added to the proteins. BODIPY labeled GTP (Thermo, catalog number G12411) and SOS-1 (or reaction buffer as control) were then added to reactions at 200 nM and 1 μM to trigger the exchange of GDP to BODIPY-GTP. TR-FRET emission signals were determined at 520 nm and 620 nm on a Envision® Multilabel Plate Reader (PerkinElmer) using a 337 nm laser as light source. All data were analyzed and plotted using Graph Pad Prism software (version 8.0.1). Raw TR-FRET data were converted to percentage of inhibition (relative to DMSO) using the following equations: […]
b) For a given test compound concentration X:
Signal (X)=Emission ratio (SOS-1 & GTP)—Emission ratio (buffer & GTP)
c) Percentage of inhibition at concentration X=[1−Signal(X)/Signal (DMSO)]*100%
The […] values were determined by nonlinear regression of plots of [inhibitor] vs. percentage of inhibition with variable slope. Table 4 summarizes inhibition of SOS1-assisted GDP/GTP exchanging activity of KRAS-G12C mutant with exemplary compounds of the present disclosure.
Background: TR-FRET usually uses a lanthanide donor and a delayed reading to cut background.

[4] abbreviates: MIA PaCa-2 cell line, 4 hours after incubation, read-out: 2D pERK IC50.
Setting [5] is: MIA PaCa-2 cell line, 3D cell culture.

The term IC50 denotes the concentration at which inhibition is half-maximal. In general, GI50 refers to the concentration that inhibits growth by half. `C=C(F)C(=O)N1CCN(c2nc(OCC34CCCN3CCC4)nc3c2CO[C@H](c2cccc4c2CCCC4)C3)C[C@@H]1CC#N` [Compound 69, 2-((S)-1-(2-fluoroacryloyl)-4-((S)-2-((tetrahydro-1H-pyrrolizin-7a(5H)-yl)methoxy)-7-(5,6,7,8-tetrahydronaphthalen-1-yl)-7,8-dihydro-5H-pyrano[4,3-d]pyrimidin-4-yl)piperazin-2-yl)acetonitrile]: the “KRAS-G12C molecular weight shift” value on KRAS-G12C mutant [1] is “Yes”. Moreover, the IC50 in experiment [2] (setting [4]) was 10 to 100 nM; against KRAS-G12C mutant [3], 20 nM. In addition, in the experiment on MIA PaCa-2 cell line (setting [5]), the concentration for 50% growth inhibition (GI50) lay within 1 to 10 nM.
On the same counts, the results for `C=C(F)C(=O)N1CCN(c2nc(OC[C@@]34CCCN3C[C@H](F)C4)nc3c2COC(c2cccc4cccc(Cl)c24)C3)C[C@@H]1CC#N` (stereo partly drawn) [Compound 62, 2-((2S)-4-(7-(8-chloronaphthalen-1-yl)-2-(((2R,7aS)-2-fluorotetrahydro-1H-pyrrolizin-7a(5H)-yl)methoxy)-7,8-dihydro-5H-pyrano[4,3-d]pyrimidin-4-yl)-1-(2-fluoroacryloyl)piperazin-2-yl)acetonitrile] are “Yes”, 1 to 10 nM, 40 nM and 0.1 to 1 nM.
On the same counts, the results for `C=C(F)C(=O)N1CCN(c2nc(OCC3(CN4CCCC4)CC3)nc3c2COC(c2cccc4cccc(Cl)c24)C3)C[C@@H]1CC#N` (mixture of isomers) [Compound 71, 2-((2S)-4-(7-(8-chloronaphthalen-1-yl)-2-((1-(pyrrolidin-1-ylmethyl)cyclopropyl)methoxy)-7,8-dihydro-5H-pyrano[4,3-d]pyrimidin-4-yl)-1-(2-fluoroacryloyl)piperazin-2-yl)acetonitrile] are “Yes”, 10 to 100 nM, 209 nM and 10 to 100 nM.
Regarding `C=C(F)C(=O)N1CCN(c2nc(OCC34CCCN3CCC4)nc3c2C(C)OC(c2cccc4cccc(Cl)c24)C3)C[C@@H]1CC#N` (stereo partly drawn) [Compound 59, 2-((2S)-4-(7-(8-chloronaphthalen-1-yl)-5-methyl-2-((tetrahydro-1H-pyrrolizin-7a(5H)-yl)methoxy)-7,8-dihydro-5H-pyrano[4,3-d]pyrimidin-4-yl)-1-(2-fluoroacryloyl)piperazin-2-yl)acetonitrile], the “KRAS-G12C molecular weight shift” value on KRAS-G12C mutant [1] is “Yes”. Further, the half-maximal inhibitory concentration (IC50) in experiment [2] (setting [4]) is 10 to 100 nM; against KRAS-G12C mutant [3], 60 nM. For the same molecule, the GI50 in the experiment on MIA PaCa-2 cell line (setting [5]) fell in the range of 1 to 10 nM.
In the same order, the values of `C=C(F)C(=O)N1CCN(c2nc(OCC34CCCN3CCC4)nc3c2[C@H](C)O[C@H](c2cccc4c2CCCC4)C3)C[C@@H]1CC#N` [Compound 61, 2-((S)-1-(2-fluoroacryloyl)-4-((5S,7S)-5-methyl-2-((tetrahydro-1H-pyrrolizin-7a(5H)-yl)methoxy)-7-(5,6,7,8-tetrahydronaphthalen-1-yl)-7,8-dihydro-5H-pyrano[4,3-d]pyrimidin-4-yl)piperazin-2-yl)acetonitrile] are “Yes”, 10 to 100 nM, 78 nM and 10 to 100 nM.
On the same counts, the results for `C=C(F)C(=O)N1CCN(c2nc(OCC34CCCN3CCC4)nc3c2CO[C@H](c2cccc4cccc(C)c24)C3)C[C@@H]1CC#N` (single isomer, unassigned) [Compound 58] are “Yes”, 10 to 100 nM, 19 nM and 1 to 10 nM.
As to `C=C(F)C(=O)N1CCN(c2nc(OCC34CCCN3CCC4)nc3c2[C@H](C)O[C@H](c2cccc4cccc(C)c24)C3)C[C@@H]1CC#N` [Compound 66, 2-((S)-1-(2-fluoroacryloyl)-4-((5S,7S)-5-methyl-7-(8-methylnaphthalen-1-yl)-2-((tetrahydro-1H-pyrrolizin-7a(5H)-yl)methoxy)-7,8-dihydro-5H-pyrano[4,3-d]pyrimidin-4-yl)piperazin-2-yl)acetonitrile], at KRAS-G12C mutant [1], the “KRAS-G12C molecular weight shift” value is given as “Yes”. The values for the concentration for half-maximal inhibition (IC50) (in experiment [2] (setting [4]); against KRAS-G12C mutant [3]) were 10 to 100 nM and 30 nM, respectively. Moreover, in the experiment on MIA PaCa-2 cell line (setting [5]), the GI50 lay within 1 to 10 nM.
Take `C=C(F)C(=O)N1CCN(c2nc(OC[C@@H]3CCCN3C)nc3c2CO[C@H](c2cccc4cccc(Cl)c24)C3)C[C@@H]1CC#N` [Compound 18, 2-((S)-4-((S)-7-(8-chloronaphthalen-1-yl)-2-(((S)-1-methylpyrrolidin-2-yl)methoxy)-7,8-dihydro-5H-pyrano[4,3-d]pyrimidin-4-yl)-1-(2-fluoroacryloyl)piperazin-2-yl)acetonitrile]: the “KRAS-G12C molecular weight shift” value at KRAS-G12C mutant [1] was “Yes”. Also, the half-maximal inhibitory concentration (IC50) is 21.9 nM in experiment [2] (MIA PaCa-2, MiaPaCa2, KRAS G12C, 4 hours, read-out: pERK IC50); 10 to 100 nM in experiment [2] (setting [4]); 78 nM against KRAS-G12C mutant [3]. Moreover, the GI50 is 1 to 10 nM in the experiment with MIA PaCa-2 cell line (setting [5]) and 7.3 nM in the experiment with MIA PaCa-2 cell line (MiaPaCa2, KRAS G12C, 3D).
For `C=C(F)C(=O)N1CCN(c2nc(OCC34CCCN3CCC4)nc3c2COC(c2cccc4cccc(Cl)c24)C3)C[C@@H]1CC#N` (stereo partly drawn) [Compound 53, 2-((2S)-4-(7-(8-chloronaphthalen-1-yl)-2-((tetrahydro-1H-pyrrolizin-7a(5H)-yl)methoxy)-7,8-dihydro-5H-pyrano[4,3-d]pyrimidin-4-yl)-1-(2-fluoroacryloyl)piperazin-2-yl)acetonitrile], on KRAS-G12C mutant [1], the “KRAS-G12C molecular weight shift” value is recorded as “Yes”. Besides, the half-maximal inhibitory concentration (IC50) is 1 to 10 nM in experiment [2] (setting [4]) and 45 nM against KRAS-G12C mutant [3]. The concentration for 50% growth inhibition (GI50) with MIA PaCa-2 cell line (setting [5]) lay in the range of 1 to 10 nM.

The values above are taken from US20220112204A1, “SUBSTITUTED DIHYDROPYRANOPYRIMIDINE COMPOUNDS AS KRAS INHIBITORS” (ACCUTAR BIOTECHNOLOGY INC., priority 2020, published 2022).
